What was measured:
Conditions in all cases: human; call rule not given here
Hepatotoxicity [1] = assay: FDA HLAED, serum glutamic oxaloacetic transaminase (SGOT) increase
Hepatotoxicity [2] = assay: FDA HLAED, lactate dehydrogenase (LDH) increase
Hepatotoxicity [3] = assay: FDA HLAED, alkaline phosphatase increase
Hepatotoxicity [4] = assay: FDA HLAED, serum glutamic pyruvic transaminase (SGPT) increase
Hepatotoxicity [5] = assay: FDA HLAED, gamma-glutamyl transferase (GGT) increase
Hepatotoxicity [6] = assay: FDA HLAED, liver enzyme composite activity
Wherever GGT Increase - Index Value is given: reference of the scale not given here.
Wherever LDH Increase - Index Value is given: reference of the scale not given here.

In the case of `O=C1c2c(O)ccc(O)c2C(=O)c2c(NCCNCCO)ccc(NCCNCCO)c21` [MITOXANTRONE], the “SGOT Increase - Activity Score” value (Hepatotoxicity [1]) is reported as “Active”, the “SGOT Increase - Index Value” (Hepatotoxicity [1]) is reported as 13.5 and the “SGOT Increase - Number of Reports” value (Hepatotoxicity [1]) is reported as under 4. The “LDH Increase - Activity Score” value (Hepatotoxicity [2]) was “Inactive”, the “LDH Increase - Index Value” (Hepatotoxicity [2]) was 0 and the “LDH Increase - Number of Reports” value (Hepatotoxicity [2]) was under 4. The “Alkaline Phosphatase Increase - Activity Score” value (Hepatotoxicity [3]) was “Inactive”, the “Alkaline Phosphatase Increase - Index Value” (Hepatotoxicity [3]) was 4.5 and the “Alkaline Phosphatase Increase - Number of Reports” value (Hepatotoxicity [3]) was under 4. The “SGPT Increase - Activity Score” value (Hepatotoxicity [4]) was “Inactive”, the “SGPT Increase - Index Value” (Hepatotoxicity [4]) was 4.5 and the “SGPT Increase - Number of Reports” value (Hepatotoxicity [4]) was under 4. For the same molecule, the “GGT Increase - Activity Score” value (Hepatotoxicity [5]) was “Inactive”, the “GGT Increase - Index Value” (Hepatotoxicity [5]) was 0 and the “GGT Increase - Number of Reports” value (Hepatotoxicity [5]) was under 4. The “Composite Activity - Active” value (Hepatotoxicity [6]) was 1, the “Composite Activity - Marginal” value (Hepatotoxicity [6]) was 0 and the “Composite Activity - Score” value (Hepatotoxicity [6]) was “Inactive”.

In the case of `COc1cc2c(cc1OC)[C@@H](Cc1cc(OC)c(OC)c(OC)c1)[N+](C)(CCCOC(=O)CC/C=C/CCC(=O)OCCC[N+]1(C)CCc3cc(OC)c(OC)cc3[C@H]1Cc1cc(OC)c(OC)c(OC)c1)CC2.[Cl-].[Cl-]` (stereo partly drawn) [MIVACURIUM CHLORIDE], the “SGOT Increase - Activity Score” value (Hepatotoxicity [1]) is reported as “Inactive”, the “SGOT Increase - Index Value” (Hepatotoxicity [1]) is reported as 0 and the “SGOT Increase - Number of Reports” value (Hepatotoxicity [1]) is reported as under 4. For the same molecule, the “LDH Increase - Activity Score” value (Hepatotoxicity [2]) was “Inactive”, the “LDH Increase - Index Value” (Hepatotoxicity [2]) was 0 and the “LDH Increase - Number of Reports” value (Hepatotoxicity [2]) was under 4. The “Alkaline Phosphatase Increase - Activity Score” value (Hepatotoxicity [3]) was “Inactive”, the “Alkaline Phosphatase Increase - Index Value” (Hepatotoxicity [3]) was 0 and the “Alkaline Phosphatase Increase - Number of Reports” value (Hepatotoxicity [3]) was under 4. For the same molecule, the “SGPT Increase - Activity Score” value (Hepatotoxicity [4]) was “Inactive”, the “SGPT Increase - Index Value” (Hepatotoxicity [4]) was 0 and the “SGPT Increase - Number of Reports” value (Hepatotoxicity [4]) was under 4. The “GGT Increase - Activity Score” value (Hepatotoxicity [5]) was “Inactive”, the “GGT Increase - Index Value” (Hepatotoxicity [5]) was 0 and the “GGT Increase - Number of Reports” value (Hepatotoxicity [5]) was under 4. The “Composite Activity - Active” value (Hepatotoxicity [6]) was 0, the “Composite Activity - Marginal” value (Hepatotoxicity [6]) was 0 and the “Composite Activity - Score” value (Hepatotoxicity [6]) was “Inactive”.

For `CCOC(=O)[C@H](CCc1ccccc1)N[C@@H](C)C(=O)N1Cc2cc(OC)c(OC)cc2C[C@H]1C(=O)O` [MOEXIPRIL], the “SGOT Increase - Activity Score” value (Hepatotoxicity [1]) was “Inactive”, the “SGOT Increase - Index Value” (Hepatotoxicity [1]) was 1.3 and the “SGOT Increase - Number of Reports” value (Hepatotoxicity [1]) was under 4. The “LDH Increase - Activity Score” value (Hepatotoxicity [2]) was “Inactive”, the “LDH Increase - Index Value” (Hepatotoxicity [2]) was 0 and the “LDH Increase - Number of Reports” value (Hepatotoxicity [2]) was under 4. The “Alkaline Phosphatase Increase - Activity Score” value (Hepatotoxicity [3]) was “Inactive”, the “Alkaline Phosphatase Increase - Index Value” (Hepatotoxicity [3]) was 0 and the “Alkaline Phosphatase Increase - Number of Reports” value (Hepatotoxicity [3]) was under 4. The “SGPT Increase - Activity Score” value (Hepatotoxicity [4]) was “Inactive”, the “SGPT Increase - Index Value” (Hepatotoxicity [4]) was 1.3 and the “SGPT Increase - Number of Reports” value (Hepatotoxicity [4]) was under 4. For the same molecule, the “GGT Increase - Activity Score” value (Hepatotoxicity [5]) was “Inactive”, the “GGT Increase - Index Value” (Hepatotoxicity [5]) was 0 and the “GGT Increase - Number of Reports” value (Hepatotoxicity [5]) was under 4. The “Composite Activity - Active” value (Hepatotoxicity [6]) was 0, the “Composite Activity - Marginal” value (Hepatotoxicity [6]) was 0 and the “Composite Activity - Score” value (Hepatotoxicity [6]) was “Inactive”.

`C[C@@H]1C[C@H]2[C@@H]3CCC4=CC(=O)C=C[C@]4(C)[C@@]3(Cl)[C@@H](O)C[C@]2(C)[C@@]1(O)C(=O)CCl` [MOMETASONE] was tested, and the “SGOT Increase - Activity Score” value (Hepatotoxicity [1]) was “Inactive”, the “SGOT Increase - Index Value” (Hepatotoxicity [1]) was 0 and the “SGOT Increase - Number of Reports” value (Hepatotoxicity [1]) was under 4. For the same molecule, the “LDH Increase - Activity Score” value (Hepatotoxicity [2]) was “Inactive”, the “LDH Increase - Index Value” (Hepatotoxicity [2]) was 0 and the “LDH Increase - Number of Reports” value (Hepatotoxicity [2]) was under 4. The “Alkaline Phosphatase Increase - Activity Score” value (Hepatotoxicity [3]) was “Inactive”, the “Alkaline Phosphatase Increase - Index Value” (Hepatotoxicity [3]) was 0 and the “Alkaline Phosphatase Increase - Number of Reports” value (Hepatotoxicity [3]) was under 4. For the same molecule, the “SGPT Increase - Activity Score” value (Hepatotoxicity [4]) was “Inactive”, the “SGPT Increase - Index Value” (Hepatotoxicity [4]) was 0 and the “SGPT Increase - Number of Reports” value (Hepatotoxicity [4]) was under 4. For the same molecule, the “GGT Increase - Activity Score” value (Hepatotoxicity [5]) was “Inactive”, the “GGT Increase - Index Value” (Hepatotoxicity [5]) was 0 and the “GGT Increase - Number of Reports” value (Hepatotoxicity [5]) was under 4. The “Composite Activity - Active” value (Hepatotoxicity [6]) was 0, the “Composite Activity - Marginal” value (Hepatotoxicity [6]) was 0 and the “Composite Activity - Score” value (Hepatotoxicity [6]) was “Inactive”.

With `CCOC(=O)Nc1ccc2c(c1)N(C(=O)CCN1CCOCC1)c1ccccc1S2` [MORICIZINE] the “SGOT Increase - Activity Score” value (Hepatotoxicity [1]) was “Active”, the “SGOT Increase - Index Value” (Hepatotoxicity [1]) was 13.7 and the “SGOT Increase - Number of Reports” value (Hepatotoxicity [1]) was “>= 4”. The “LDH Increase - Activity Score” value (Hepatotoxicity [2]) was “Inactive”, the “LDH Increase - Index Value” (Hepatotoxicity [2]) was 3.4 and the “LDH Increase - Number of Reports” value (Hepatotoxicity [2]) was under 4. The “Alkaline Phosphatase Increase - Activity Score” value (Hepatotoxicity [3]) was “Inactive”, the “Alkaline Phosphatase Increase - Index Value” (Hepatotoxicity [3]) was 3.4 and the “Alkaline Phosphatase Increase - Number of Reports” value (Hepatotoxicity [3]) was under 4. For the same molecule, the “SGPT Increase - Activity Score” value (Hepatotoxicity [4]) was “Inactive”, the “SGPT Increase - Index Value” (Hepatotoxicity [4]) was 3.4 and the “SGPT Increase - Number of Reports” value (Hepatotoxicity [4]) was under 4. The “GGT Increase - Activity Score” value (Hepatotoxicity [5]) was “Inactive”, the “GGT Increase - Index Value” (Hepatotoxicity [5]) was 0 and the “GGT Increase - Number of Reports” value (Hepatotoxicity [5]) was under 4. For the same molecule, the “Composite Activity - Active” value (Hepatotoxicity [6]) was 1, the “Composite Activity - Marginal” value (Hepatotoxicity [6]) was 0 and the “Composite Activity - Score” value (Hepatotoxicity [6]) was “Inactive”.

For `C/C(=C\C(=O)OCCCCCCCCC(=O)O)C[C@@H]1OC[C@H](C[C@@H]2O[C@H]2[C@@H](C)[C@H](C)O)[C@@H](O)[C@H]1O` [MUPIROCIN], the “SGOT Increase - Activity Score” value (Hepatotoxicity [1]) was “Inactive”, the “SGOT Increase - Index Value” (Hepatotoxicity [1]) was 0 and the “SGOT Increase - Number of Reports” value (Hepatotoxicity [1]) was under 4. The “LDH Increase - Activity Score” value (Hepatotoxicity [2]) was “Inactive”, the “LDH Increase - Index Value” (Hepatotoxicity [2]) was 0 and the “LDH Increase - Number of Reports” value (Hepatotoxicity [2]) was under 4. The “Alkaline Phosphatase Increase - Activity Score” value (Hepatotoxicity [3]) was “Inactive”, the “Alkaline Phosphatase Increase - Index Value” (Hepatotoxicity [3]) was 0 and the “Alkaline Phosphatase Increase - Number of Reports” value (Hepatotoxicity [3]) was under 4. The “SGPT Increase - Activity Score” value (Hepatotoxicity [4]) was “Inactive”, the “SGPT Increase - Index Value” (Hepatotoxicity [4]) was 0 and the “SGPT Increase - Number of Reports” value (Hepatotoxicity [4]) was under 4. The “GGT Increase - Activity Score” value (Hepatotoxicity [5]) was “Inactive”, the “GGT Increase - Index Value” (Hepatotoxicity [5]) was 0 and the “GGT Increase - Number of Reports” value (Hepatotoxicity [5]) was under 4. The “Composite Activity - Active” value (Hepatotoxicity [6]) was 0, the “Composite Activity - Marginal” value (Hepatotoxicity [6]) was 0 and the “Composite Activity - Score” value (Hepatotoxicity [6]) was “Inactive”.
